Source: patent publication US12258328B2, “6-membered heteroaryl-containing aminopyridine compounds as EGFR inhibitors” (YUHAN CORPORATION, priority 2021, dated 2025)
Where two headings read alike, the source gives them in different places.

What was measured:
EGFR del19/T790M/C797S = EGFR del19/T790M/C797S (Homo sapiens, UniProt P00533, C797S/DEL746-750/T790M); assay: Biochemical EGFR kinase assay (Lance Ultra TR-FRET), triple mutant del19/T790M/C797S
Procedure, shortened: (§1)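 Kinase activity is measured by TR-FRET phosphopeptide detection. Compounds span 0.003 μM to 10 μM; the 1 h reaction at room temperature is quenched with EDTA, then labelled antibody (2 nM) is incubated 60 min before reading.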

EGFR wildtype = EGFR wildtype (Homo sapiens, UniProt P00533); assay: Biochemical EGFR kinase assay (Lance Ultra TR-FRET), wildtype
Procedure, shortened: as §1

EGFR L858R/C797S = EGFR L858R/C797S (Homo sapiens, UniProt P00533, C797S/L858R); assay: Biochemical EGFR kinase assay (Lance Ultra TR-FRET), double mutant L858R/C797S
Procedure, shortened: as §1

EGFR del19/C797S = EGFR del19/C797S (Homo sapiens, UniProt P00533, C797S/DEL746-750); assay: Biochemical EGFR kinase assay (Lance Ultra TR-FRET), double mutant del19/C797S
Procedure, shortened: as §1

EGFR L858R/T790M/C797S = EGFR L858R/T790M/C797S (Homo sapiens, UniProt P00533, C797S/L858R/T790M); assay: Biochemical EGFR kinase assay (Lance Ultra TR-FRET), triple mutant L858R/T790M/C797S
Procedure, shortened: as §1

[1] = ATP at Km, read-out: IC50 del19/T790M/C797S, Km ATP
[2] = ATP at Km, read-out: IC50 WT, Km ATP
[3] = ATP at Km, read-out: IC50 L858R/C797S, Km ATP
[4] = ATP at Km, read-out: IC50 del19/C797S, Km ATP
[5] = ATP at Km, read-out: IC50 L858R/T790M/C797S, Km ATP
[6] = Km ATP, read-out: IC50 del19/T790M/C797S (nM) Km ATP
[7] = Km ATP, read-out: IC50 WT (nM) Km ATP
[8] = Km ATP, read-out: IC50 L858R/C797S (nM) Km ATP
[9] = Km ATP, read-out: IC50 del19/C797S (nM) Km ATP
[10] = Km ATP, read-out: IC50 L858R/T790M/C797S (nM) Km ATP
[11] = IC50 del19/T790M/C797S, 100 μM ATP
[12] = IC50 L858R/T790M/C797S, 100 μM ATP
[13] = IC50 del19/T790M/C797S (nM) 100 μM ATP, 100 μM ATP
[14] = IC50 WT (nM) 100 μM ATP, 100 μM ATP
[15] = IC50 L858R/C797S (nM) 100 μM ATP, 100 μM ATP
[16] = IC50 del19/C797S (nM) 100 μM ATP, 100 μM ATP
[17] = IC50 L858R/T790M/C797S (nM) 100 μM ATP, 100 μM ATP

Sequence of EGFR wildtype (P00533 25-1210): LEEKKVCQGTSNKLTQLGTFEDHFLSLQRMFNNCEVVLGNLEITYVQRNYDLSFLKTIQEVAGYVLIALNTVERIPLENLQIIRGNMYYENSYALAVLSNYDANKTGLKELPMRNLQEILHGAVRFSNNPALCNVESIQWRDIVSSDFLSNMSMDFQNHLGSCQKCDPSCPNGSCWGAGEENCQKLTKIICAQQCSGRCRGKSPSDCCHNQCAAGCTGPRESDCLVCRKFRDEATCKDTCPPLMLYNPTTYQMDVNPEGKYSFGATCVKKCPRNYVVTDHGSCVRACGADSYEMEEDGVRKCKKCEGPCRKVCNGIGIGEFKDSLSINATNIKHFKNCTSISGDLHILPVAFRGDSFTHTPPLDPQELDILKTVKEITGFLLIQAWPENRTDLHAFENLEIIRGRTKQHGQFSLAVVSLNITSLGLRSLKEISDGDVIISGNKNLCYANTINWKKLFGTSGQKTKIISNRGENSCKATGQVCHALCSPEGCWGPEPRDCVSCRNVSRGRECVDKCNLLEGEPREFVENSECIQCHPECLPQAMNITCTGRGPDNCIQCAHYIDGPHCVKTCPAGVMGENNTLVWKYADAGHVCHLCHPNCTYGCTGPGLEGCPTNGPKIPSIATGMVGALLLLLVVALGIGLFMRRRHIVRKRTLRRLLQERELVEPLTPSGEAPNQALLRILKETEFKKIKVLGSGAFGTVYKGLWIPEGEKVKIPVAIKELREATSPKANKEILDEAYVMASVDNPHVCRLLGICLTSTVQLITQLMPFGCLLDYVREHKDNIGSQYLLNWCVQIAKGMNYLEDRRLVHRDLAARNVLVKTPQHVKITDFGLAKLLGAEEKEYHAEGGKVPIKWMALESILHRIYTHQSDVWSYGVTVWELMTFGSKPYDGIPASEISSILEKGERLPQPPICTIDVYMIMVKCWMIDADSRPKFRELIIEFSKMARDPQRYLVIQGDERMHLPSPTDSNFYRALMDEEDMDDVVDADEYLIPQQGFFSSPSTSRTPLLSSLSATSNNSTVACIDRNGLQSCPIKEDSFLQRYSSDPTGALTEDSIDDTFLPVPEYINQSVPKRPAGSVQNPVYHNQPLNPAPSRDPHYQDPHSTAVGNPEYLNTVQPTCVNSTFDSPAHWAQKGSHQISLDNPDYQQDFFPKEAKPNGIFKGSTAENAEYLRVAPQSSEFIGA
Sequence of EGFR L858R/C797S (P00533 25-1210 C797S/L858R): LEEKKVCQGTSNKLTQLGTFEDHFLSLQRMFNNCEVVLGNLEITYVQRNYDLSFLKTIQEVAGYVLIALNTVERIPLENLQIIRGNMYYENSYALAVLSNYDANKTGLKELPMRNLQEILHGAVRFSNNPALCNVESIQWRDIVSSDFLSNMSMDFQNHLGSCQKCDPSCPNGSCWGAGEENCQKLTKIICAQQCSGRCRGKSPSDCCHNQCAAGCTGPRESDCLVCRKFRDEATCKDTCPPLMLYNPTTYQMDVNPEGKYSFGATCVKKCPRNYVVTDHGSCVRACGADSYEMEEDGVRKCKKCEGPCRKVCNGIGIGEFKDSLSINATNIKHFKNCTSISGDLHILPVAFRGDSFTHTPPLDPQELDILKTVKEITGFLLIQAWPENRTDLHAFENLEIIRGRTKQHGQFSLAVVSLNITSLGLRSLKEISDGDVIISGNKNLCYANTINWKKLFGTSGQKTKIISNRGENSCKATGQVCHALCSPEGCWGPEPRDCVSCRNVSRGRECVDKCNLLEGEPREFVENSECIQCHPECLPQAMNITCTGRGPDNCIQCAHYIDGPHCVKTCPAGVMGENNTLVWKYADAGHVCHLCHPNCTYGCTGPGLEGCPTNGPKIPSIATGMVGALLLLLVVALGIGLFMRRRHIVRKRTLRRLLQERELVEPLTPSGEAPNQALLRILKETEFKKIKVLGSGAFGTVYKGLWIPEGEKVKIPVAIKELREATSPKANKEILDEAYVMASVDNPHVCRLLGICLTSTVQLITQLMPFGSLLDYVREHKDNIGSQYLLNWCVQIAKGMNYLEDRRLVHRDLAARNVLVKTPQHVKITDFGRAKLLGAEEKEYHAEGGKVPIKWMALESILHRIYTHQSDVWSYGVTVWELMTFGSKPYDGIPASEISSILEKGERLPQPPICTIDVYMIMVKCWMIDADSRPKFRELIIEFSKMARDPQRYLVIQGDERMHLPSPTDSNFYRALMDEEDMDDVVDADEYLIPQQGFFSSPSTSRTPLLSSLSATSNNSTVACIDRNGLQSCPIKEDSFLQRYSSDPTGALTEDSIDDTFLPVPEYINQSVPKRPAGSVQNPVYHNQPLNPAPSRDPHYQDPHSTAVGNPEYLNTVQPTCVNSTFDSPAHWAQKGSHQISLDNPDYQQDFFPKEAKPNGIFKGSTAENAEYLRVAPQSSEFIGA
Sequence of EGFR L858R/T790M/C797S (P00533 25-1210 T790M/C797S/L858R): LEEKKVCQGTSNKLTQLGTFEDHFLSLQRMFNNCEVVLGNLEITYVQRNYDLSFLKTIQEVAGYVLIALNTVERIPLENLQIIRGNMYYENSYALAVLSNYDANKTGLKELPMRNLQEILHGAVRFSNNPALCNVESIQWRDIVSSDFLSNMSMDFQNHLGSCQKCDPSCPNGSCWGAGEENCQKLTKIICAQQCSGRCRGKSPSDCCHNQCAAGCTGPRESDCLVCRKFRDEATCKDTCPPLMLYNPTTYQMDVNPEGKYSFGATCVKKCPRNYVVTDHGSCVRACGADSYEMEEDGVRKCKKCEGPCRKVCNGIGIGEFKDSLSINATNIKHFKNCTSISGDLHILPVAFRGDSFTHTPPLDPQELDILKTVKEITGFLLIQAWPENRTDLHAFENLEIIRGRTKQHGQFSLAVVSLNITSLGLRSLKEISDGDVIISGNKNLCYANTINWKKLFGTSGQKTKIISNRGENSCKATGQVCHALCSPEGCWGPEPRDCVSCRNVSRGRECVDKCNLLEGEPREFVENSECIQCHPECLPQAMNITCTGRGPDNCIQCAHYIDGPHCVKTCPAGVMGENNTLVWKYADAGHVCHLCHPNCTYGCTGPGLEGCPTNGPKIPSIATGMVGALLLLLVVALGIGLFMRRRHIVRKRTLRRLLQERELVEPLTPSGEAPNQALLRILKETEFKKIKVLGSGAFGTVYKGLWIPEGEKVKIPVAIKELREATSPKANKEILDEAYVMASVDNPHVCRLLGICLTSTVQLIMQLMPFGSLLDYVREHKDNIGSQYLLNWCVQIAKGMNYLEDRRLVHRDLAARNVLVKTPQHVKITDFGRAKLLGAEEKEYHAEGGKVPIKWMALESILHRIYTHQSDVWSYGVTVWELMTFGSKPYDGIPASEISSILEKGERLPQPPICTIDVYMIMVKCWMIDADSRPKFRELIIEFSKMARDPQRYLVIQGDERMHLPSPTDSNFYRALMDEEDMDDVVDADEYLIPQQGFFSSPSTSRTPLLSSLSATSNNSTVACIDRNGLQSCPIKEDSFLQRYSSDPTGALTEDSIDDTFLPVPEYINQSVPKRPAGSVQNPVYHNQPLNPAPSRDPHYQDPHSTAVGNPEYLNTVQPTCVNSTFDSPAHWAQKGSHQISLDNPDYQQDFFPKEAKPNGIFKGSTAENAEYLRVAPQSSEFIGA
Sequence of EGFR del19/C797S (P00533 with tags, fused parts or gaps DEL746-750/C797S): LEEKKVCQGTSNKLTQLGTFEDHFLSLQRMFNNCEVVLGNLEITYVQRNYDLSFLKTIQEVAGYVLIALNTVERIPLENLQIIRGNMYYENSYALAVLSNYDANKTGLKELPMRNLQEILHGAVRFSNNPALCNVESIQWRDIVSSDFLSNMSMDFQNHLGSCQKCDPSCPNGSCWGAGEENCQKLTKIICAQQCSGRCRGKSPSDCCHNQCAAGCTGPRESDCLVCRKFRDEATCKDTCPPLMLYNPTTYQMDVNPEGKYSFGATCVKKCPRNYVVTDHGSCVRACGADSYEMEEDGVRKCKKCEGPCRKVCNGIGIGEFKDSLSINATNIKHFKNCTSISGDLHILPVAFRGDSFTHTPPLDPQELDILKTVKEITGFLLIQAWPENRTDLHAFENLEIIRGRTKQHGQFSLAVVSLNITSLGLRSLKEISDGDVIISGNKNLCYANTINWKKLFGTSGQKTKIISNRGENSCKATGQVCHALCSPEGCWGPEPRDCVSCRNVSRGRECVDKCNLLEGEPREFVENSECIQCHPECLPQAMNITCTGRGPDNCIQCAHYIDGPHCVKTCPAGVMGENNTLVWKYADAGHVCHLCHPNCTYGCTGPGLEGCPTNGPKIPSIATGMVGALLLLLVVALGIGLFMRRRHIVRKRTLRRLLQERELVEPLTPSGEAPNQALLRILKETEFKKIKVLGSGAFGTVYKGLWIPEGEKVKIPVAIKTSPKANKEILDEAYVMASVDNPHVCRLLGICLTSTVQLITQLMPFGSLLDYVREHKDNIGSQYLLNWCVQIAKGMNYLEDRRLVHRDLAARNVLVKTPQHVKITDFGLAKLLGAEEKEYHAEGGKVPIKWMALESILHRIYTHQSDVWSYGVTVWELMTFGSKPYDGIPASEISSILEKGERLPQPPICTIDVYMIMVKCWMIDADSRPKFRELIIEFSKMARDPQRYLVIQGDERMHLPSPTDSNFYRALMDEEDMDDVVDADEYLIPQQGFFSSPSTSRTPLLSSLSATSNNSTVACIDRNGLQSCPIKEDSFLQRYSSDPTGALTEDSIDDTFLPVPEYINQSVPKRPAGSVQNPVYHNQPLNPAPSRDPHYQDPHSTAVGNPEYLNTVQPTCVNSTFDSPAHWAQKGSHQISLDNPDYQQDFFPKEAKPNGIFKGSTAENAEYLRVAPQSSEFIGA

Row | SMILES | IC50 (EGFR del19/T790M/C797S; [1]) [nM] | IC50 (EGFR wildtype; [2]) [nM] | IC50 (EGFR L858R/C797S; [3]) [nM] | IC50 (EGFR del19/C797S; [4]) [nM] | IC50 (EGFR L858R/T790M/C797S; [5]) [nM] | IC50 (EGFR del19/T790M/C797S; [6]) [nM] | IC50 (EGFR wildtype; [7]) [nM] | IC50 (EGFR L858R/C797S; [8]) [nM] | IC50 (EGFR del19/C797S; [9]) [nM] | IC50 (EGFR L858R/T790M/C797S; [10]) [nM] | IC50 (EGFR del19/T790M/C797S; [11]) [nM] | IC50 (EGFR wildtype; IC50 WT, 100 μM ATP) [nM] | IC50 (EGFR L858R/C797S; IC50 L858R/C797S, 100 μM ATP) [nM] | IC50 (EGFR del19/C797S; IC50 del19/C797S, 100 μM ATP) [nM] | IC50 (EGFR L858R/T790M/C797S; [12]) [nM] | IC50 (EGFR del19/T790M/C797S; [13]) [nM] | IC50 (EGFR wildtype; [14]) [nM] | IC50 (EGFR L858R/C797S; [15]) [nM] | IC50 (EGFR del19/C797S; [16]) [nM] | IC50 (EGFR L858R/T790M/C797S; [17]) [nM]
1 | C[C@]1(O)CC[C@@H](Nc2cc(Nc3ccnc(-c4cnn(S(=O)(=O)C5CC5)c4)n3)ncc2-c2ncccc2OCC(F)(F)F)CC1 [Example 333, (1s,4s)-4-((6′-((2-(1-(Cyclopropylsulfonyl)-1H-pyrazol-4-yl)pyrimidin-4-yl)amino)-3-(2,2,2-trifluoroethoxy)-[2,3′-bipyridin]-4′-yl)amino)-1-methylcyclohexan-1-ol] |  |  |  |  |  | 4.1 | 117 | 795 | 460 | 2.6 |  |  |  |  |  |  |  |  |  | 
2 | CN(C)C[C@H]1CC[C@@H](Nc2cc(Nc3ccnc(-c4cnn(S(=O)(=O)C5CC5)c4)n3)ncc2-c2cnc(N3CCC(F)(F)CC3)cn2)CC1 [Example 74, N^2-(2-(1-(Cyclopropylsulfonyl)-1H-pyrazol-4-yl)pyrimidin-4-yl)-5-(5-(4,4-difluoropiperidin-1-yl)pyrazin-2-yl)-N^4-((1s,4s)-4-((dimethylamino)methyl)cyclohexyl)pyridine-2,4-diamine] |  |  |  |  |  | 1.6 | 9.1 | 3.2 | 0.7 | 0.6 |  |  |  |  |  | 2.2 | 1610 | 43.9 | 2.4 | 2.8
3 | CC(C)(O)[C@H]1CC[C@@H](Nc2cc(Nc3ccnc(-c4cnn(S(=O)(=O)C5CC5)c4)n3)ncc2-c2cccc(F)n2)CC1 [Example 163, 2-((1s,4s)-4-((6′-((2-(1-(Cyclopropylsulfonyl)-1H-pyrazol-4-yl)pyrimidin-4-yl)amino)-6-fluoro-[2,3′-bipyridin]-4′-yl)amino)cyclohexyl)propan-2-ol] |  | 18.7 | 13 | 2.6 | 0.7 |  |  |  |  |  | 2.6 | > 10000 | 49.4 | 3.1 | 2.3 |  |  |  |  | 
4 | CN(C)CCOc1cnc(-c2cnc(Nc3ccnc(-c4cnn(S(=O)(=O)C5CC5)c4)n3)cc2NC2CCC(C)(O)CC2)cn1 (stereo not drawn) [Example 115, (1s,4s)-4-((2-((2-(1-(Cyclopropylsulfonyl)-1H-pyrazol-4-yl)pyrimidin-4-yl)amino)-5-(5-(2-(dimethylamino)ethoxy)pyrazin-2-yl)pyridin-4-yl)amino)-1-methylcyclohexan-1-ol] |  |  |  |  |  | 0.1 | 1.8 | 0.1 | 0.4 | 0.1 |  |  |  |  |  | 0.4 | > 10000 | 0.5 | 0.8 | 0.1
5 | CC(C)Nc1cc(Nc2ccnc(-c3cnn(S(=O)(=O)C4CC4)c3)n2)ncc1-c1ccc(C(O)C(F)(F)F)cn1 (stereo not drawn) [Example 294, 1-(6′-((2-(1-(Cyclopropylsulfonyl)-1H-pyrazol-4-yl)pyrimidin-4-yl)amino)-4′-(isopropylamino)-[2,3′-bipyridin]-5-yl)-2,2,2-trifluoroethan-1-ol] | 9.8 | 28 | 38.5 | 60.8 | 2.3 |  |  |  |  |  |  |  |  |  |  |  |  |  |  | 
6 | C[C@]1(O)CC[C@@H](Nc2cc(Nc3ccnc(-c4cnn(S(=O)(=O)C5CC5)c4)n3)ncc2-c2cnc(CO)cn2)CC1 [Example 60, (1s,4s)-4-((2-((2-(1-(Cyclopropylsulfonyl)-1H-pyrazol-4-yl)pyrimidin-4-yl)amino)-5-(5-(hydroxymethyl)pyrazin-2-yl)pyridin-4-yl)amino)-1-methylcyclohexan-1-ol] |  |  |  |  |  | 0.2 | 6.8 | 0.4 | 0.4 | 0.2 |  |  |  |  |  | 0.2 | > 10000 | 4.2 | 0.5 | 0.4

Now from value to compound:

Row | IC50 (EGFR del19/T790M/C797S; [1]) [nM] | IC50 (EGFR wildtype; [2]) [nM] | IC50 (EGFR L858R/C797S; [3]) [nM] | IC50 (EGFR del19/C797S; [4]) [nM] | IC50 (EGFR L858R/T790M/C797S; [5]) [nM] | IC50 (EGFR del19/T790M/C797S; [6]) [nM] | IC50 (EGFR wildtype; [7]) [nM] | IC50 (EGFR L858R/C797S; [8]) [nM] | IC50 (EGFR del19/C797S; [9]) [nM] | IC50 (EGFR L858R/T790M/C797S; [10]) [nM] | IC50 (EGFR del19/T790M/C797S; [11]) [nM] | IC50 (EGFR wildtype; IC50 WT, 100 μM ATP) [nM] | IC50 (EGFR L858R/C797S; IC50 L858R/C797S, 100 μM ATP) [nM] | IC50 (EGFR del19/C797S; IC50 del19/C797S, 100 μM ATP) [nM] | IC50 (EGFR L858R/T790M/C797S; [12]) [nM] | IC50 (EGFR del19/T790M/C797S; [13]) [nM] | IC50 (EGFR wildtype; [14]) [nM] | IC50 (EGFR L858R/C797S; [15]) [nM] | IC50 (EGFR del19/C797S; [16]) [nM] | IC50 (EGFR L858R/T790M/C797S; [17]) [nM] | SMILES
7 | 4.5 | 89.8 | 10.1 | 17.6 | 3.7 |  |  |  |  |  |  |  |  |  |  |  |  |  |  |  | CN(C)S(=O)(=O)n1cc(-c2nccc(Nc3cc(N[C@H]4CC[C@@](C)(O)CC4)c(-c4ccc(CC(F)(F)F)cn4)cn3)n2)cn1 [Example 296, 4-(4-((4′-(((1s,4s)-4-Hydroxy-4-methylcyclohexyl)amino)-5-(2,2,2-trifluoroethyl)-[2,3′-bipyridin]-6′-yl)amino)pyrimidin-2-yl)-N,N-dimethyl-1H-pyrazole-1-sulfonamide]
8 | 0.5 | 3.8 | 0.6 | 0.9 | 0.2 |  |  |  |  |  | 0.6 | > 10000 | 7.9 | 0.7 | 0.4 |  |  |  |  |  | C[C@]1(O)CC[C@@H](Nc2cc(Nc3ccnc(-c4cnn(S(=O)(=O)C5CC5)c4)n3)ncc2-c2cccc(F)n2)CC1 [Example 271, (1s,4s)-4-((6′-((2-(1-(Cyclopropylsulfonyl)-1H-pyrazol-4-yl)pyrimidin-4-yl)amino)-6-fluoro-[2,3′-bipyridin]-4′-yl)amino)-1-methylcyclohexan-1-ol]
9 |  | 6.9 | 0.9 | 2.2 |  |  |  |  |  |  | 1.4 | 1770 | 7.9 | 1.7 | 0.8 |  |  |  |  |  | CN1CCN(S(=O)(=O)c2ccc(-c3cnc(Nc4ccnc(-c5cnn(S(=O)(=O)C6CC6)c5)n4)cc3N[C@H]3CC[C@@H](CO)CC3)nc2)CC1 [Example 189, ((1s,4s)-4-((6′-((2-(1-(Cyclopropylsulfonyl)-1H-pyrazol-4-yl)pyrimidin-4-yl)amino)-5-((4-methylpiperazin-1-yl)sulfonyl)-[2,3′-bipyridin]-4′-yl)amino)cyclohexyl)methanol]
10 | 0.8 |  | 0.6 | 0.7 | 0.2 |  |  |  |  |  | 1.3 | 141 | 2.1 | 2 | 0.9 |  |  |  |  |  | CC(C)(O)c1ccc(-c2cnc(Nc3ccnc(-c4cnn(S(=O)(=O)C5CC5)c4)n3)cc2N[C@H]2CC[C@@H](CO)CC2)nc1 [Example 170, 2-(6′-((2-(1-(Cyclopropylsulfonyl)-1H-pyrazol-4-yl)pyrimidin-4-yl)amino)-4′-(((1s,4s)-4-(hydroxymethyl)cyclohexyl)amino)-[2,3′-bipyridin]-5-yl)propan-2-ol]
11 | 1.8 | 15.4 | 1.7 | 2.9 | 1.1 |  |  |  |  |  |  |  |  |  |  |  |  |  |  |  | CN(C)S(=O)(=O)n1cc(-c2nccc(Nc3cc(NC4CCC(C)(O)CC4)c(-c4ccc(C(C)(O)C(F)(F)F)cn4)cn3)n2)cn1 (stereo not drawn) [Example 298, 4-(4-((4′-(((1s,4s)-4-Hydroxy-4-methylcyclohexyl)amino)-5-(1,1,1-trifluoro-2-hydroxypropan-2-yl)-[2,3′-bipyridin]-6′-yl)amino)pyrimidin-2-yl)-N,N-dimethyl-1H-pyrazole-1-sulfonamide]
12 | 0.9 | 5.2 | 2.5 | 1.9 | 0.4 |  |  |  |  |  |  | 835 | 10 | 7 | 0.8 |  |  |  |  |  | O=S(=O)(C1CC1)n1cc(-c2nccc(Nc3cc(NC4CCC(CO)CC4)c(-c4ccc(C(O)C(F)(F)F)cn4)cn3)n2)cn1 (stereo not drawn) [Example 227, 1-(6′-((2-(1-(Cyclopropylsulfonyl)-1H-pyrazol-4-yl)pyrimidin-4-yl)amino)-4′-(((1s,4s)-4-(hydroxymethyl)cyclohexyl)amino)-[2,3′-bipyridin]-5-yl)-2,2,2-trifluoroethan-1-ol]
13 | 3.2 | 12.1 | 2.9 | 4.9 |  |  |  |  |  |  | 1.8 | 2670 | 27.4 | 8.7 | 2.9 |  |  |  |  |  | O=S(=O)(C1CC1)n1cc(-c2nccc(Nc3cc(N[C@H]4CC[C@@H](CO)CC4)c(-c4ccc(CC(F)(F)F)cn4)cn3)n2)cn1 [Example 219, ((1s,4s)-4-((6′-((2-(1-(Cyclopropylsulfonyl)-1H-pyrazol-4-yl)pyrimidin-4-yl)amino)-5-(2,2,2-trifluoroethyl)-[2,3′-bipyridin]-4′-yl)amino)cyclohexyl)methanol]
14 | 5.8 | 47.5 | 12 | 6 | 2.5 |  |  |  |  |  | 8.5 | > 10000 | 67.7 | 30.7 | 9.1 |  |  |  |  |  | Cc1ccc(-c2cnc(Nc3ccnc(-c4cnn(S(=O)(=O)C5CC5)c4)n3)cc2N[C@H]2CC[C@@H](C(C)(C)O)CC2)nc1F [Example 180, 2-((1s,4s)-4-((6′-((2-(1-(Cyclopropylsulfonyl)-1H-pyrazol-4-yl)pyrimidin-4-yl)amino)-6-fluoro-5-methyl-[2,3′-bipyridin]-4′-yl)amino)cyclohexyl)propan-2-ol]
